Where a SMILES comes first, the peptide text is derived from it. Bridges are numbered along the chain shown (N, C = ends). [ ]: non-standard residue; d: D form. Mpa = O=C(O)CCS
Key:
[1] = test system: F-VIII and PA; conditions: mammals; literature; cited from earlier work
[2] = test system: F-VIII; conditions: cited from earlier work
[3] = test system: anesthetized rats; assay: Antidiuretic effect by intravenous injection into anesthetized rats; format: in vivo, rat; conditions: for Antidiuretic Potencies (peak): rats, mean
Description: (§1) The vasopressin analogs of this invention were tested for antidiuretic and pressor effects by intravenous injection into anesthetized rats using techniques described in Cort, J. H., Schuck, O., Stribrna, J. Skopkova, J., Jost. K., Mulder, J. L., Kidney Internat. 8:292,1975. The increase in Factor VIII after administration were analyzed in male canine citrated plasma. The Factor VIII were estimated by both the classical clotting assay (F-VIII(C)) and by radioimmunoassay (F-VIII(RIA)), both described in Prowse, C. V., Sas, G., Gader, A. M. A., Cort, J. H., Cash, J. D., Brit. H. Haematol. 41:437, 1979. The vasopressin analogs are suitable for administration to mammals by intravenous or subcutaneous injection containing 100 μg to 1 mg peptide/ml. The intravenous or subcutaneous doses would be in the range of 0.02 to 1.0 μg/kg. The intranasal dose range would be ten times the former dose.
(§2) The vasopressin analogs were injected intravenously into normal male dogs anesthetized with sodium pentothal. Blood was withdrawn from each dog after 30, 60 and 120 minutes and analyzed for F-VIII. Rats were also rested for antidiuretic and pressor activity due to the vasopressin analogs of this invention.

[4] = test system: anesthetized rats; assay: Pressor effect by intravenous injection into anesthetized rats; format: in vivo, rat; conditions: for Pressor Potencies (peak): rats, mean
Description: as §1, §2

[5] = test system: Factor VIII; assay: Factor VIII classical clotting assay (F-VIII(C)) on blood of dogs after intravenous injection; format: in vivo; conditions: dog, i.v., pre-injection blood = 100%; for F-VIII 30' (c): 30 minutes; for F-VIII 60' (c): 60 minutes; for F-VIII 120' (c): 120 minutes
Description: (§3) K., Mulder, J. L., Kidney Internat. 8:292,1975. The increase in Factor VIII after administration were analyzed in male canine citrated plasma. The Factor VIII were estimated by both the classical clotting assay (F-VIII(C)) and by radioimmunoassay (F-VIII(RIA)), both described in […]., Cort, J. H., Cash, J. D., Brit. H. Haematol. 41:437, 1979. […] The intravenous or subcutaneous doses would be in the range of 0.02 to 1.0 μg/kg. The intranasal dose range would be ten times the former dose. […] The compounds from Examples 4-8 were tested by intravenously injecting the compounds in physiological saline into a normal dog which was anesthetized using sodium pentothal. Blood samples were withdrawn from each dog after 30, 60 and 120 minutes and tested. […] The F-VIII factor level was also determined by radioimmunoassay(RIA). The results of these tests are reported in Table I. Desmopressin (10 μg/kg) was used as a reference injection peptide.

[6] = test system: Factor VIII; assay: Factor VIII radioimmunoassay (F-VIII(RIA)) on blood of dogs after intravenous injection; format: in vivo; conditions: dog, i.v.; for F-VIII 30' (RIA): 30 minutes; for F-VIII 60' (RIA): 60 minutes; for F-VIII 120' (RIA): 120 minutes
Description: as §3

[7] = 5 μg/kg, hemophiliac dog plasma = 0%

1-desamino-6-monocarba-[8 -D-Arg]-vasopressin [dCDAVP]
effect on blood levels of F-VIII and PA [1]: highly potent and prolonged effects on F-VIII and PA release

NC(=O)CC[C@@H]1NC(=O)[C@H](Cc2ccccc2)NC(=O)[C@H](Cc2ccc(O)cc2)NC(=O)CCSSC[C@@H](C(=O)N2CCC[C@H]2C(=O)N[C@H](CCCN=C(N)N)C(=O)NCC(N)=O)NC(=O)[C@H](CC(N)=O)NC1=O [Desmopressin, 1-desamino-[8-D-ARG]-vasopressin, reference compound]
effect on low F-VIII levels in patients ([2]; hemophilia A and B, von Willebrand's disease, literature): increases low levels of F-VIII toward normal | antidiuretic side effect in clinical use ([2]; human, in vivo): undesired water retention by the patients | antidiuretic activity [3]: more than 1000 IU/mg | Antidiuretic Potencies (peak) [3]: 1100 IU/mg | pressor activity [4]: less than 0.2 IU/mg | Pressor Potencies (peak) [4]: 0.15 IU/mg | F-VIII 30' (c) ([5]; 10 μg/kg): 220% | F-VIII 60' (c) ([5]; 10 μg/kg): 250% | F-VIII 120' (c) ([5]; 10 μg/kg): 210% | effect on blood levels of F-VIII and PA [1]: highly potent and prolonged effects on F-VIII and PA release | F-VIII 30' (RIA) ([6]; 10 μg/kg): 126% | F-VIII 60' (RIA) ([6]; 10 μg/kg): 134% | F-VIII 120' (RIA) ([6]; 10 μg/kg): 164%

C[C@@H](NC(=O)[C@H](CCCNC(=N)N)NC(=O)[C@@H]1CCCN1C(=O)[C@@H]1CSSCCC(=O)N[C@@H](Cc2ccc(O)cc2)C(=O)N[C@@H](Cc2ccccc2)C(=O)N[C@@H](CCC(N)=O)C(=O)N[C@@H](CC(N)=O)C(=O)N1)C(N)=O [Example 4, 1-Desamino-[9-D-Ala-NH]-arginine-vasopressin] ([Mpa]YFQNCPR[dA]-NH2; disulfide 1-6)
Antidiuretic Potencies (peak) [3]: 1.8 IU/mg | Pressor Potencies (peak) [4]: 0.15 IU/mg | F-VIII 30' (c) [5, 7]: 120% | F-VIII 60' (c) ([5]; 5 μg/kg): 160% | F-VIII 120' (c) ([5]; 5 μg/kg): 170% | F-VIII 30' (c) ([5]; 10 μg/kg): 230% | F-VIII 60' (c) ([5]; 10 μg/kg): 250% | F-VIII 120' (c) ([5]; 10 μg/kg): 240% | F-VIII 30' (RIA) ([6]; 5 μg/kg): 115% | F-VIII 60' (RIA) ([6]; 5 μg/kg): 125% | F-VIII 120' (RIA) ([6]; 5 μg/kg): 130% | F-VIII 30' (RIA) ([6]; 10 μg/kg): 124% | F-VIII 60' (RIA) ([6]; 10 μg/kg): 132% | F-VIII 120' (RIA) ([6]; 10 μg/kg): 163%

C[C@@H](NC(=O)[C@H](CCCNC(=N)N)NC(=O)[C@@H]1CCCN1C(=O)[C@@H]1CSSC[C@H](N)C(=O)N[C@@H](Cc2ccc(O)cc2)C(=O)N[C@@H](Cc2ccccc2)C(=O)N[C@@H](CCC(N)=O)C(=O)N[C@@H](CC(N)=O)C(=O)N1)C(N)=O [Example 5, ([9-D-Ala-NH2]-arginine-vasopressin]
Antidiuretic Potencies (peak) [3]: 1.2 IU/mg | Pressor Potencies (peak) [4]: 0.10 IU/mg | F-VIII 30' (c) [5, 7]: 115% | F-VIII 60' (c) ([5]; 5 μg/kg): 120% | F-VIII 120' (c) ([5]; 5 μg/kg): 105% | F-VIII 30' (c) ([5]; 10 μg/kg): 225% | F-VIII 60' (c) ([5]; 10 μg/kg): 128% | F-VIII 120' (c) ([5]; 10 μg/kg): 115% | F-VIII 30' (RIA) ([6]; 5 μg/kg): 110% | F-VIII 60' (RIA) ([6]; 5 μg/kg): 107% | F-VIII 120' (RIA) ([6]; 5 μg/kg): 98% | F-VIII 30' (RIA) ([6]; 10 μg/kg): 115% | F-VIII 60' (RIA) ([6]; 10 μg/kg): 110% | F-VIII 120' (RIA) ([6]; 10 μg/kg): 115%

C[C@H](NC(=O)[C@@H](CCCNC(=N)N)NC(=O)[C@@H]1CCCN1C(=O)[C@@H]1CSSCCC(=O)N[C@@H](Cc2ccc(O)cc2)C(=O)N[C@@H](Cc2ccccc2)C(=O)N[C@@H](CCC(N)=O)C(=O)N[C@@H](CC(N)=O)C(=O)N1)C(N)=O [Example 8, (1-desamino-[8-D-Arg, 9-Ala-NH2]arginine)-vasopressin] ([Mpa]YFQNCP[dR]A-NH2; disulfide 1-6)
Antidiuretic Potencies (peak) [3]: 2.23 IU/mg | Pressor Potencies (peak) [4]: 0.09 IU/mg | F-VIII 30' (c) ([5]; 10 μg/kg): 155% | F-VIII 60' (c) ([5]; 10 μg/kg): 150% | F-VIII 120' (c) ([5]; 10 μg/kg): 140% | F-VIII 30' (RIA) ([6]; 10 μg/kg): 120% | F-VIII 60' (RIA) ([6]; 10 μg/kg): 145% | F-VIII 120' (RIA) ([6]; 10 μg/kg): 155%

CNCC(O)c1ccc(O)c(O)c1 (stereo not drawn) [adrenaline]
effect on blood levels of F-VIII and PA [1]: can increase the blood levels of both PA and F-VIII

CC[C@H](C)[C@@H]1NC(=O)[C@H](Cc2ccc(O)cc2)NC(=O)[C@@H](N)CSSC[C@@H](C(=O)N2CCC[C@H]2C(=O)N[C@@H](CC(C)C)C(=O)NCC(N)=O)NC(=O)[C@H](CC(N)=O)NC(=O)[C@H](CCC(N)=O)NC1=O [oxytocin]
effect on blood levels of F-VIII and PA [1]: no effect on increasing F-VIII and PA in blood

NC(=O)CC[C@@H]1NC(=O)[C@H](Cc2ccccc2)NC(=O)[C@H](Cc2ccc(O)cc2)NC(=O)[C@@H](N)CSSC[C@@H](C(=O)N2CCC[C@H]2C(=O)N[C@@H](CCCN=C(N)N)C(=O)NCC(N)=O)NC(=O)[C@H](CC(N)=O)NC1=O [vasopressin]
effect on blood levels of F-VIII and PA [1]: can increase the blood levels of both PA and F-VIII

(1-desamino-6-monocarba[9-D-Ala-NH2 ]-arginine)-vasopressin [Example 7]
Antidiuretic Potencies (peak) [3]: 1.9 IU/mg | Pressor Potencies (peak) [4]: 0.18 IU/mg | F-VIII 30' (c) [5, 7]: 145% | F-VIII 60' (c) ([5]; 5 μg/kg): 190% | F-VIII 120' (c) ([5]; 5 μg/kg): 210% | F-VIII 30' (c) ([5]; 10 μg/kg): 240% | F-VIII 60' (c) ([5]; 10 μg/kg): 255% | F-VIII 120' (c) ([5]; 10 μg/kg): 266% | F-VIII 30' (RIA) ([6]; 5 μg/kg): 140% | F-VIII 60' (RIA) ([6]; 5 μg/kg): 150% | F-VIII 120' (RIA) ([6]; 5 μg/kg): 155% | F-VIII 30' (RIA) ([6]; 10 μg/kg): 125% | F-VIII 60' (RIA) ([6]; 10 μg/kg): 165% | F-VIII 120' (RIA) ([6]; 10 μg/kg): 180%

angiotensin II (DRVYIHPF; Angiotensin-2; UniProt P01019 25-32, looked up) [other pressor substance]
effect on blood levels of F-VIII and PA [1]: no effect on increasing F-VIII and PA in blood

arginine-vasotocin
effect on blood levels of F-VIII and PA [1]: far less active

Reference: patent publication US4285858A, “Vasopressin analogs” (Mt. Sinai School of Medicine of the City University of N.Y., priority 1979, dated 1981)
